Measurements published in the CheMixHub ionic liquid set.
± gives the uncertainty stated by the source.

Assay: xn = mol fraction of the nth substance listed
Conditions: 100 kPa

CCCCCCCC[n+]1ccccc1.[Br-] + CC(C)C[C@H](N)C(=O)O + O
Conditions | electrical conductivity [S/m]
298.15 K, x2 = 0.001786, x1 = 0.006987 | 1.66 ± 0.1
298.15 K, x2 = 0.001787, x1 = 0.006277 | 1.56 ± 0.093
298.15 K, x2 = 0.001787, x1 = 0.006604 | 1.61 ± 0.096
298.15 K, x2 = 0.001788, x1 = 0.005918 | 1.51 ± 0.09
298.15 K, x2 = 0.001789, x1 = 0.005535 | 1.45 ± 0.087
298.15 K, x2 = 0.00179, x1 = 0.00464 | 1.31 ± 0.078
298.15 K, x2 = 0.00179, x1 = 0.005107 | 1.38 ± 0.083
298.15 K, x2 = 0.001791, x1 = 0.004127 | 1.23 ± 0.074
298.15 K, x2 = 0.001792, x1 = 0.003579 | 1.11 ± 0.067
298.15 K, x2 = 0.001793, x1 = 0.002934 | 0.956 ± 0.057
298.15 K, x2 = 0.001795, x1 = 0.001935 | 0.69 ± 0.042
298.15 K, x2 = 0.001795, x1 = 0.002302 | 0.791 ± 0.048
298.15 K, x2 = 0.001796, x1 = 0.001485 | 0.558 ± 0.034
298.15 K, x2 = 0.001797, x1 = 0.0009595 | 0.394 ± 0.024
303.15 K, x2 = 0.0008942, x1 = 0.006659 | 1.8 ± 0.11
303.15 K, x2 = 0.0008943, x1 = 0.006555 | 1.79 ± 0.11
303.15 K, x2 = 0.0008945, x1 = 0.006292 | 1.76 ± 0.1
303.15 K, x2 = 0.0008949, x1 = 0.005925 | 1.71 ± 0.1
303.15 K, x2 = 0.0008952, x1 = 0.005533 | 1.65 ± 0.099
303.15 K, x2 = 0.0008956, x1 = 0.005102 | 1.58 ± 0.095
303.15 K, x2 = 0.000896, x1 = 0.004627 | 1.5 ± 0.09
303.15 K, x2 = 0.0008965, x1 = 0.00412 | 1.4 ± 0.084
303.15 K, x2 = 0.000897, x1 = 0.003563 | 1.26 ± 0.076
303.15 K, x2 = 0.0008975, x1 = 0.002936 | 1.1 ± 0.066
303.15 K, x2 = 0.0008982, x1 = 0.002246 | 0.893 ± 0.054
303.15 K, x2 = 0.0008986, x1 = 0.001776 | 0.741 ± 0.044
303.15 K, x2 = 0.000899, x1 = 0.001323 | 0.582 ± 0.035
303.15 K, x2 = 0.0008994, x1 = 0.0008492 | 0.411 ± 0.025
303.15 K, x2 = 0.001786, x1 = 0.006976 | 1.88 ± 0.11
303.15 K, x2 = 0.001787, x1 = 0.006268 | 1.76 ± 0.1
303.15 K, x2 = 0.001787, x1 = 0.006595 | 1.81 ± 0.11
303.15 K, x2 = 0.001788, x1 = 0.005909 | 1.69 ± 0.1
303.15 K, x2 = 0.001789, x1 = 0.005527 | 1.63 ± 0.098
303.15 K, x2 = 0.00179, x1 = 0.004633 | 1.47 ± 0.088
303.15 K, x2 = 0.00179, x1 = 0.0051 | 1.56 ± 0.093
303.15 K, x2 = 0.001791, x1 = 0.00412 | 1.37 ± 0.082
303.15 K, x2 = 0.001792, x1 = 0.003575 | 1.24 ± 0.074
303.15 K, x2 = 0.001793, x1 = 0.002931 | 1.07 ± 0.064
303.15 K, x2 = 0.001795, x1 = 0.001932 | 0.767 ± 0.046
303.15 K, x2 = 0.001795, x1 = 0.002298 | 0.88 ± 0.053
303.15 K, x2 = 0.001796, x1 = 0.001483 | 0.619 ± 0.037
303.15 K, x2 = 0.001797, x1 = 0.0009576 | 0.441 ± 0.027
308.15 K, x2 = 0.0008942, x1 = 0.00665 | 2.05 ± 0.12
308.15 K, x2 = 0.0008943, x1 = 0.006544 | 2.03 ± 0.12
308.15 K, x2 = 0.0008945, x1 = 0.006283 | 1.98 ± 0.12
308.15 K, x2 = 0.0008949, x1 = 0.005916 | 1.91 ± 0.12
308.15 K, x2 = 0.0008952, x1 = 0.005524 | 1.83 ± 0.11
308.15 K, x2 = 0.0008956, x1 = 0.005093 | 1.76 ± 0.1
308.15 K, x2 = 0.000896, x1 = 0.00462 | 1.66 ± 0.099
308.15 K, x2 = 0.0008965, x1 = 0.004115 | 1.53 ± 0.092
308.15 K, x2 = 0.000897, x1 = 0.003557 | 1.39 ± 0.084
308.15 K, x2 = 0.0008975, x1 = 0.002933 | 1.2 ± 0.072
308.15 K, x2 = 0.0008982, x1 = 0.002244 | 0.971 ± 0.058
308.15 K, x2 = 0.0008986, x1 = 0.001775 | 0.809 ± 0.049
308.15 K, x2 = 0.000899, x1 = 0.001321 | 0.643 ± 0.039
308.15 K, x2 = 0.0008994, x1 = 0.0008474 | 0.461 ± 0.028
308.15 K, x2 = 0.001786, x1 = 0.006965 | 2.11 ± 0.13
308.15 K, x2 = 0.001787, x1 = 0.006586 | 2.04 ± 0.12
308.15 K, x2 = 0.001788, x1 = 0.0059 | 1.9 ± 0.11
308.15 K, x2 = 0.001788, x1 = 0.006259 | 1.97 ± 0.12
308.15 K, x2 = 0.001789, x1 = 0.005518 | 1.82 ± 0.11
308.15 K, x2 = 0.00179, x1 = 0.004626 | 1.64 ± 0.098
308.15 K, x2 = 0.00179, x1 = 0.005091 | 1.73 ± 0.1
308.15 K, x2 = 0.001791, x1 = 0.004114 | 1.51 ± 0.091
308.15 K, x2 = 0.001792, x1 = 0.003568 | 1.37 ± 0.082
308.15 K, x2 = 0.001793, x1 = 0.002925 | 1.17 ± 0.07
308.15 K, x2 = 0.001795, x1 = 0.00193 | 0.836 ± 0.05
308.15 K, x2 = 0.001795, x1 = 0.002295 | 0.962 ± 0.058
308.15 K, x2 = 0.001796, x1 = 0.001481 | 0.683 ± 0.041
308.15 K, x2 = 0.001797, x1 = 0.0009558 | 0.483 ± 0.029
